The structures appear in SMILES notation. pIC50: −log10 of the molar value.

Chain of EBI2 (P32249 whole entry): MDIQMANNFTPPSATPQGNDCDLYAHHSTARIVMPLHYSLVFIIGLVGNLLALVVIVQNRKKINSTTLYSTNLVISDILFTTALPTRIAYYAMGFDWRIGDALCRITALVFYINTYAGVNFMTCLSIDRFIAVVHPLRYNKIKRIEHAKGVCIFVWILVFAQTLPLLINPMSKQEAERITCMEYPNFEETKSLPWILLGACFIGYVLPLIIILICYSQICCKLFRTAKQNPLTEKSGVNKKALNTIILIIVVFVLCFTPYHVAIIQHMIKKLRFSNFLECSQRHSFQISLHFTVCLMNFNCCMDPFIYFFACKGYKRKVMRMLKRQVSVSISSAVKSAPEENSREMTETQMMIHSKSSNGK

The target of this assay is EBI2 (Homo sapiens, UniProt P32249). The assay is described as follows: Cell-based luminescent assay of EBI2 modulation (7a,25-OHC stimulated). The settings on record: 7a,25-OHC final assay concentration 80 nM, 60 minute incubation. Here is the method:
To assess EBI2 modulation, the compounds described herein were assayed in the following cell-based luminescent assay:
1) Plated 600 cells/well in 4 μL of assay media into columns 1-48 of a 1536-well assay plate, using a liquid dispenser.
2) Centrifuged plates at 1000 rpm for 1 minute and covered with lids.
3) Incubated overnight at 37° C., 100% relative humidity, 5% CO2.
1) Centrifuged compound plates containing compounds described herein at 500 rpm for 1 minute.
2) Added compounds into assay plate col 5-48 to final concentration 4-5 uM. Added matching amount of DMSO to positive and negative control wells in columns 1-4.
3) Dispensed 2 uL/well of assay media to columns 1-2 for the positive control wells.
4) Added 2 uL/well of 400 nM 7a,25-OHC (final assay concentration=80 nM) in assay media to columns 3-48 for the negative control and test compound wells.
5) Centrifuged plates at 1000 rpm for 1 minute and re-lid plates.
6) Incubated plates at 37° C., 100% relative humidity, 5% CO2 for 60 minutes.
7) Following 60 minute incubation, delivered 2.5 uL of Detection Reagent solution to each assay plate (Columns 1-48) using a liquid handler.
8) Centrifuged plates at 2000 rpm for 2 minutes and re-lid plates.
9) Incubated plates for 60 minutes at 25 degrees in the dark.
10) Read plates using the Viewlux, Envision or other suitable plate reader using a luminescence detection.
The experimental values were normalized by the difference between values from neutral and stimulator control wells in each plate. Then normalized data was corrected to remove systematic plate patterns due to artifacts such as dispensing tip issues etc.
As to `O=C(/C=C/c1ccc(Br)cc1)N1CCC2(CC1)CN(C(=O)/C=C/c1ccc(Br)cc1)C2` [Compound C1, (2E)-1-{7-[(2E)-3-(4-bromophenyl)prop-2-enoyl]-2,7-diazaspiro[3.5]non-2-yl}-3-(4-bromophenyl)prop-2-en-1-one], the pIC50 (commonly the IC50 on a negative log10 scale, so that one unit is a factor of ten) is more than 7.00.

Compound `O=C(/C=C/c1ccc(Br)cc1)N1CC2(CCN(C(=O)c3cccc(Br)c3)CC2)C1` [Compound C2, (2E)-3-(4-bromophenyl)-1-{7-[(3-bromophenyl)carbonyl]-2,7-diazaspiro[3.5]non-2-yl}prop-2-en-1-one] had a pIC50 of more than 7.00.

With `O=C(C#Cc1ccc(Cl)cc1)N1CC2(CCN(C(=O)c3ccc(F)cc3)CC2)C1` [Compound C3, 3-(4-chlorophenyl)-1-{7-[(4-fluorophenyl)carbonyl]-2,7-diazaspiro[3.5]non-2-yl}prop-2-yn-1-one], the pIC50 was 6.30 to 7.00.

`O=C(c1cc2cc(Cl)ccc2[nH]1)N1CCC2(CC1)CN(Cc1cccc(F)c1)C2` [Compound C4, 5-chloroindol-2-yl 2-[(3-fluorophenyl)methyl]-2,7-diazaspiro[3.5]non-7-yl ketone]: the pIC50 was more than 7.00.

On to `O=C(c1ccc(F)cc1)N1CC2(CCN(C(=O)c3cc4cc(Cl)ccc4[nH]3)CC2)C1` [Compound C5, 5-chloroindol-2-yl 2-[(4-fluorophenyl)carbonyl]-2,7-diazaspiro[3.5]non-7-yl ketone], for which the pIC50 is more than 7.00.

Consider `O=C(/C=C/c1ccc(Br)cc1)N1CCC2(CC1)CN(Cc1ccc(Cl)cc1)C2` [Compound C6, (2E)-3-(4-bromophenyl)-1-{2-[(4-chlorophenyl)methyl]-2,7-diazaspiro[3.5]non-7-yl}prop-2-en-1-one], for which the pIC50 is more than 7.00.

The compound `O=C(/C=C/c1ccc(Br)cc1)N1CCC2(CC1)CN(C(=O)c1ccccc1)C2` [Compound C7, (2E)-3-(4-bromophenyl)-1-[2-(phenylcarbonyl)-2,7-diazaspiro[3.5]non-7-yl]prop-2-en-1-one] showed a pIC50 of more than 7.00.

`O=C(/C=C/c1ccc(Br)cc1)N1CCC2(CC1)CN(Cc1ccc(F)cc1)C2` [Compound C8, (2E)-3-(4-bromophenyl)-1-{2-[(4-fluorophenyl)methyl]-2,7-diazaspiro[3.5]non-7-yl}prop-2-en-1-one] gave a pIC50 of more than 7.00.

As for `COc1ccc(C(=O)N2CC3(CCN(C(=O)/C=C/c4ccc(Br)cc4)CC3)C2)cc1OC` [Compound C9, (2E)-1-{2-[(3,4-dimethoxyphenyl)carbonyl]-2,7-diazaspiro[3.5]non-7-yl}-3-(4-bromophenyl)prop-2-en-1-one], the pIC50 was more than 7.00.

In turn, `O=C(/C=C/c1ccc(Br)cc1)N1CCC2(CC1)CN(C(=O)c1cc(Cl)cc(Cl)c1)C2` [Compound C10, (2E)-1-{2-[(3,5-dichlorophenyl)carbonyl]-2,7-diazaspiro[3.5]non-7-yl}-3-(4-bromophenyl)prop-2-en-1-one] had a pIC50 of more than 7.00.

For `O=C(/C=C/c1ccc(Br)cc1)N1CCC2(CC1)CN(Cc1c(Cl)cccc1Cl)C2` [Compound C11, (2E)-1-{2-[(2,6-dichlorophenyl)methyl]-2,7-diazaspiro[3.5]non-7-yl}-3-(4-bromophenyl)prop-2-en-1-one], the pIC50 was more than 7.00.

`Cc1cccc(C(=O)N2CC3(CCN(C(=O)/C=C/c4ccc(Br)cc4)CC3)C2)c1` [Compound C12, (2E)-3-(4-bromophenyl)-1-{2-[(3-methylphenyl)carbonyl]-2,7-diazaspiro[3.5]non-7-yl}prop-2-en-1-one] had a pIC50 of more than 7.00.

In turn, `O=C(c1ccc(C(F)(F)F)c(F)c1)N1CC2(CCN(C(=O)c3cc4cc(Cl)ccc4[nH]3)CC2)C1` [Compound C13, 5-chloroindol-2-yl 2-{[3-fluoro-4-(trifluoromethyl)phenyl]carbonyl}-2,7-diazaspiro[3.5]non-7-yl ketone] showed a pIC50 of 6.30 to 7.00.

`O=C(c1cc2cc(Cl)ccc2[nH]1)N1CCC2(CC1)CN(Cc1ccc(C(F)(F)F)c(F)c1)C2` [Compound C14, 5-chloroindol-2-yl 2-{[3-fluoro-4-(trifluoromethyl)phenyl]methyl}-2,7-diazaspiro[3.5]non-7-yl ketone] had a pIC50 of 6.30 to 7.00.

The compound `O=C(c1cc2cc(Cl)ccc2[nH]1)N1CCC2(CC1)CN(Cc1ccc(C(F)(F)F)cc1)C2` [Compound C15, 5-chloroindol-2-yl 2-{[4-(trifluoromethyl)phenyl]methyl}-2,7-diazaspiro[3.5]non-7-yl ketone] gave a pIC50 of 6.30 to 7.00.

In the case of `O=C(c1ccc(-c2nnn[nH]2)cc1)N1CC2(CCN(C(=O)c3cc4cc(Cl)ccc4[nH]3)CC2)C1` [Compound C16, 5-chloroindol-2-yl 2-[(4-(1H-1,2,3,4-tetraazol-5-yl)phenyl)carbonyl]-2,7-diazaspiro[3.5]non-7-yl ketone], the negative logarithm of the IC50 (pIC50) was 5.30 to 6.30.

Compound `O=C(c1cc2cc(Cl)ccc2[nH]1)N1CCC2(CC1)CN(Cc1ccc(F)cc1)C2` [Compound C17, 5-chloroindol-2-yl 2-[(4-fluorophenyl)methyl]-2,7-diazaspiro[3.5]non-7-yl ketone] had a pIC50 of more than 7.00.

In the case of `O=C(c1ccc(C(F)(F)F)c(F)c1)N1CCC2(CC1)CN(C(=O)c1cc3cc(Cl)ccc3[nH]1)C2` [Compound C18, 5-chloroindol-2-yl 7-{[3-fluoro-4-(trifluoromethyl)phenyl]carbonyl}-2,7-diazaspiro[3.5]non-2-yl ketone], the pIC50 was more than 7.00.

With `O=C(/C=C/c1ccc(Br)cc1)N1CC2(CCN(C(=O)c3ccc(Cl)cc3)CC2)C1` [Compound C19, (2E)-3-(4-bromophenyl)-1-{7-[(4-chlorophenyl)carbonyl]-2,7-diazaspiro[3.5]non-2-yl}prop-2-en-1-one], the pIC50 is more than 7.00.

The compound `O=C(/C=C/c1ccc(Br)cc1)N1CC2(CCN(C(=O)c3ccc(F)cc3)CC2)C1` [Compound C20, (2E)-3-(4-bromophenyl)-1-{7-[(4-fluorophenyl)carbonyl]-2,7-diazaspiro[3.5]non-2-yl}prop-2-en-1-one] gave a pIC50 of more than 7.00.

Consider `O=C(/C=C/c1ccc(Br)cc1)N1CC2(CCN(C(=O)c3ccc(C(F)(F)F)cc3)CC2)C1` [Compound C21, (2E)-3-(4-bromophenyl)-1-(7-{[4-(trifluoromethyl)phenyl]carbonyl}-2,7-diazaspiro[3.5]non-2-yl)prop-2-en-1-one], for which the pIC50 was more than 7.00.

For the compound `O=C(/C=C/c1ccc(Br)cc1)N1CC2(CCN(C(=O)c3ccc(F)c(C(F)(F)F)c3)CC2)C1` [Compound C22, (2E)-3-(4-bromophenyl)-1-(7-{[4-fluoro-3-(trifluoromethyl)phenyl]carbonyl}-2,7-diazaspiro[3.5]non-2-yl)prop-2-en-1-one], the pIC50 is more than 7.00.

With `O=C(/C=C/c1ccc(Br)cc1)N1CC2(CCN(C(=O)c3ccc(-c4nnn[nH]4)cc3)CC2)C1` [Compound C23, (2E)-3-(4-bromophenyl)-1-{7-[(4-(1H-1,2,3,4-tetraazol-5-yl)phenyl)carbonyl]-2,7-diazaspiro[3.5]non-2-yl}prop-2-en-1-one], the pIC50 was 6.30 to 7.00.

In the case of `O=C(/C=C/c1ccc(Br)cc1)N1CC2(CCN(Cc3cc(C(F)(F)F)cc(C(F)(F)F)c3)CC2)C1` [Compound C24, (2E)-1-(7-{[3,5-bis(trifluoromethyl)phenyl]methyl}-2,7-diazaspiro[3.5]non-2-yl)-3-(4-bromophenyl)prop-2-en-1-one], the pIC50 is 6.30 to 7.00.

Turning to `O=C(/C=C/c1ccc(Br)cc1)N1CC2(CCN(Cc3ccc(F)cc3)CC2)C1` [Compound C25, (2E)-3-(4-bromophenyl)-1-{7-[(4-fluorophenyl)methyl]-2,7-diazaspiro[3.5]non-2-yl}prop-2-en-1-one], the pIC50 is 6.30 to 7.00.

`O=C(/C=C/c1ccc(Br)cc1)N1CC2(CCN(Cc3ccc(Cl)cc3)CC2)C1` [Compound C26, (2E)-3-(4-bromophenyl)-1-{7-[(4-chlorophenyl)methyl]-2,7-diazaspiro[3.5]non-2-yl}prop-2-en-1-one] gave a negative logarithm of the IC50 (pIC50) of 6.30 to 7.00.

In the case of `O=C(/C=C/c1ccc(Br)cc1)N1CC2(CCN(Cc3ccc(F)c(C(F)(F)F)c3)CC2)C1` [Compound C27, (2E)-3-(4-bromophenyl)-1-(7-{[4-fluoro-3-(trifluoromethyl)phenyl]methyl}-2,7-diazaspiro[3.5]non-2-yl)prop-2-en-1-one], the pIC50 is 6.30 to 7.00.

As for `O=C(/C=C/c1ccc(Cl)c(Cl)c1)N1CC2(CCN(C(=O)c3ccc(F)cc3)CC2)C1` [Compound C28, (2E)-3-(3,4-dichlorophenyl)-1-{7-[(4-fluorophenyl)carbonyl]-2,7-diazaspiro[3.5]non-2-yl}prop-2-en-1-one], the pIC50 was more than 7.00.

Consider `O=C(/C=C/c1ccc(Cl)c(Cl)c1)N1CC2(CCN(C(=O)c3ccc(Cl)cc3)CC2)C1` [Compound C29, (2E)-3-(3,4-dichlorophenyl)-1-{7-[(4-chlorophenyl)carbonyl]-2,7-diazaspiro[3.5]non-2-yl}prop-2-en-1-one], for which the pIC50 is more than 7.00.

Compound `O=C(/C=C/c1ccc(Cl)c(Cl)c1)N1CC2(CCN(C(=O)c3ccc(C(F)(F)F)cc3)CC2)C1` [Compound C30, (2E)-3-(3,4-dichlorophenyl)-1-(7-{[4-(trifluoromethyl)phenyl]carbonyl}-2,7-diazaspiro[3.5]non-2-yl)prop-2-en-1-one] had a pIC50 of more than 7.00.
